Columns and labels:
[1] = Clinical study #3: PK of edaravone oral formulation (formula #3), fasted vs after high-fat, standard or light meal; analysis of variance; type: in vivo, human; settings: 105 mg oral; for Cmax Max: in ng/mL; for AUC(0-inf) / Cmax / Tmax / half-life: male, human, plasma, po, 105 mg
Description: Effects of meal consumption before administration of the edaravone oral formulation on the pharmacokinetics of edaravone were evaluated. Specifically, clinical studies #1, #2, and #3 described below were conducted on separate days in Japanese healthy adult male subjects. In each of clinical studies #1, #2, and #3, one dose each of edaravone oral formulations (edaravone suspensions) of formulas #1, #2, and #3 shown in Table 1 below were used respectively and administered orally once during the study period. For each clinical study, a reference study was conducted (reference example), in which the edaravone oral formulation was administered in fasted conditions as described below, and in each clinical study and the corresponding reference study, the edaravone oral formulation was each administered to the same subjects.
For the high-fat meal, a meal with total calories per meal of 800 to 1000 kilocalories and calorie intake from lipid of 50% was used. For the standard meal, a meal with total calories per meal of 400 to 500 kilocalories and calorie intake from lipid of 25% was used. For the light meal, a liquid-type nutritional supplement with total calories per meal of 250 kilocalories (enteral nutritional supplement: Ensure Liquid (trade name)) was used.
As examples, the edaravone oral formulation (formula #3) was administered orally to each subject of 8 hours after high-fat meal consumption, 4 hours after standard meal consumption, and 2 hours after light meal consumption. Blood samples were each collected before the administration, and 5 minutes, 15 minutes, 30 minutes, 45 minutes, 1 hour, 1.5 hours, 2 hours, 4 hours, 6 hours, 8 hours, 10 hours, 12 hours, 24 hours, 36 hours, and 48 hours after the administration, and the concentrations of unchanged edaravone in plasma were measured. In addition, as a comparative example, the edaravone oral formulation was administered orally to the same subjects 2 hours after standard meal consumption, blood samples were collected, and the concentrations of unchanged edaravone in plasma were measured in the same manner. On the other hand, as a reference example, the edaravone oral formulation was administered orally to the same subjects in fasted conditions, blood samples were collected, and the concentrations of unchanged edaravone in plasma were measured in the same manner. For the administration in fasted conditions, the edaravone oral formulation was administered orally after a lapse of 10 hours or longer from the previous meal consumption. None of the subjects consumed a next meal until the blood sample collection 4 hours after the administration was completed.
That is, from the results of the edaravone PK parameters, an analysis of variance was conducted on the AUC and Cmax in consideration of the meal condition. The spaghetti plots in FIG. 1 show results from individual subjects, in which results from the same subjects are connected with lines between results in the administration in fasted conditions and results in the postprandial administration.

[2] = Clinical study #6: PK of edaravone oral formulation (formula #3) via PEG tube in ALS patients; type: in vivo, human; settings: for Cmax: 105 mg
Description: Pharmacokinetics of edaravone in administration of the edaravone oral formulation via a PEG tube was evaluated. Specifically, a clinical study #6 described below was conducted in ALS patients with a percutaneous endoscopic gastrostomy tube (PEG tube) (the patient group).
The edaravone oral formulation was administered via a PEG tube to the patient group in fasted conditions after a lapse of 10 hours or longer from consumption of a meal. That is, first, 100 mL of lukewarm water was injected through a PEG tube 1 hour before the administration of the edaravone oral formulation, and 10 mL of lukewarm water was injected through a PEG tube immediately before the administration. Then, the edaravone oral formulation was administered to the PEG tube, and further 10 mL of water was injected through the PEG tube three times to wash in the edaravone oral formulation. In the patient group, ALS patients who had been already administered with an edaravone intravenous infusion formulation were administered with the edaravone oral formulation via a PEG tube after a lapse of 48 hours or longer from the time of completion of the previous administration of the intravenous infusion formulation. Blood samples were each collected before the administration, and 15 minutes, 30 minutes, 1 hour, 2 hours, 4 hours, 8 hours, and 24 hours after the administration, and the concentrations of unchanged edaravone in plasma were measured. […] For the reference example, the results of the reference group in Example 4, in which the edaravone oral formulation of the same formula #3 was administered orally and blood samples were collected, were utilized.
The resulting PK parameters were corrected for body weight of each subject in the patient group adjusted to 70 kg by a proportional calculation. In addition, the results of the PK parameters after correction of the patient group are shown in individual plots as #6 in FIG. 3. A comparison was made between the patient group administered via a PEG tube in Table 10 below and the reference group administered orally in Table 9 above. […] Thus, the difference in the Cmax and the difference in the AUC before weight correction between the patient group administered via a PEG tube and the reference group administered orally seen in Table 10 below are considered due to the difference in body weight between the patient group administered via a PEG tube and the reference group administered orally, and the difference in the Cmax and the difference in the AUC after weight correction between the patient group administered via a PEG tube and the reference group administered orally seen in FIG. 3 are each considered to be within the range of error.

[3] = Oxidation of edaravone depending on pH; type: physicochemical; settings: dependence on pH
[4] = 2 h after standard meal vs fasted
[5] = 4 h after standard meal vs fasted
[6] = 8 h after high-fat meal vs fasted
[7] = formula #3, 2 h after light meal, mean (n = 16)
[8] = formula #3, 2 h after standard meal, mean (n = 16)
[9] = formula #3, 4 h after standard meal, mean (n = 16)
[10] = formula #3, 8 h after high-fat meal, mean (n = 16)
[11] = formula #3, fasted, mean (n = 16)
[12] = after weight correction (70 kg)
[13] = human, plasma, 105 mg via PEG tube, fasted, ALS patients, mean, before weight correction

CC1=NN(c2ccccc2)C(=O)C1 [Edaravone, 3-methyl-1-phenyl-2-pyrazolin-5-one]
change in the AUC in comparison with fasted ([1]; 2 h after light meal vs fasted): no decrease and → | change in the Cmax in comparison with fasted ([1]; 2 h after light meal vs fasted): no decrease and → | decrease in the AUC in comparison with fasted [1, 4]: (21% ↓) | decrease in the Cmax in comparison with fasted [1, 4]: (45% ↓) | Cmax Min ([1]; 2 hours after light meal): 388 ng/mL | Cmax Max ([1]; 2 hours after light meal): 3237 | change in the AUC in comparison with fasted [1, 5]: no decrease and → | change in the Cmax in comparison with fasted [1, 5]: no decrease and → | Cmax Min ([1]; 4 hours after standard meal): 642 ng/mL | Cmax Max ([1]; 4 hours after standard meal): 4286 | change in the AUC in comparison with fasted [1, 6]: no decrease and → | change in the Cmax in comparison with fasted [1, 6]: no decrease and → | Cmax Min ([1]; 8 hours after high-fat meal): 595 ng/mL | Cmax Max ([1]; 8 hours after high-fat meal): 5270 | Cmax Min ([1]; fasted): 797 ng/mL | Cmax Max ([1]; fasted): 4816 | AUC(0-inf) ([1]; 2 hours after light meal, analysis of variance, read-out: AUC0-∞ Least-square mean): 1880 ng·h/mL | Cmax ([1]; 2 hours after light meal, analysis of variance, read-out: Cmax Least-square mean): 1660 ng/mL | Cmax ([1]; 2 hours after light meal, read-out: Cmax Median): 1960 ng/mL | AUC(0-inf) ([1]; 4 hours after standard meal, analysis of variance, read-out: AUC0-∞ Least-square mean): 1990 ng·h/mL | Cmax ([1]; 4 hours after standard meal, analysis of variance, read-out: Cmax Least-square mean): 1760 ng/mL | Cmax ([1]; 4 hours after standard meal, read-out: Cmax Median): 1740 ng/mL | AUC(0-inf) ([1]; 8 hours after high-fat meal, analysis of variance, read-out: AUC0-∞ Least-square mean): 2120 ng·h/mL | Cmax ([1]; 8 hours after high-fat meal, analysis of variance, read-out: Cmax Least-square mean): 2190 ng/mL | Cmax ([1]; 8 hours after high-fat meal, read-out: Cmax Median): 2240 ng/mL | Cmax ([1]; fasted and each postprandial administration alike, read-out: Cmax, median of values of each subject): ~2000 ng/mL | Cmax ([1]; fasted and each postprandial administration alike, read-out: Cmax, range of values of each subject): 1000 to 5000 ng/mL | AUC(0-inf) ([1]; fasted, analysis of variance, read-out: AUC0-∞ Least-square mean): 2070 ng·h/mL | Cmax ([1]; fasted, analysis of variance, read-out: Cmax Least-square mean): 2020 ng/mL | Cmax ([1]; fasted, read-out: Cmax Median): 1990 ng/mL | Tmax [1, 7]: 24.6 min | half-life [1, 7]: 439 min | AUC(0-inf) ([1]; formula #3, 2 h after light meal, mean (n = 16), read-out: AUC0-∞): 1960 ng·h/mL | Cmax ([1]; formula #3, 2 h after light meal, mean (n = 16), read-out: Cmax): 1900 ng/mL | Tmax [1, 8]: 37.8 min | half-life [1, 8]: 675 min | AUC(0-inf) ([1]; formula #3, 2 h after standard meal, mean (n = 16), read-out: AUC0-∞): 1720 ng·h/mL | Cmax ([1]; formula #3, 2 h after standard meal, mean (n = 16), read-out: Cmax): 1280 ng/mL | Tmax [1, 9]: 26.4 min | half-life [1, 9]: 543 min | AUC(0-inf) ([1]; formula #3, 4 h after standard meal, mean (n = 16), read-out: AUC0-∞): 2070 ng·h/mL | Cmax ([1]; formula #3, 4 h after standard meal, mean (n = 16), read-out: Cmax): 2020 ng/mL | Tmax [1, 10]: 21.6 min | half-life [1, 10]: 443 min | AUC(0-inf) ([1]; formula #3, 8 h after high-fat meal, mean (n = 16), read-out: AUC0-∞): 2210 ng·h/mL | Cmax ([1]; formula #3, 8 h after high-fat meal, mean (n = 16), read-out: Cmax): 2520 ng/mL | Tmax [1, 11]: 22.8 min | half-life [1, 11]: 490 min | AUC(0-inf) ([1]; formula #3, fasted, mean (n = 16), read-out: AUC0-∞): 2160 ng·h/mL | Cmax ([1]; formula #3, fasted, mean (n = 16), read-out: Cmax): 2320 ng/mL | difference in the AUC between the patient group administered via a PEG tube and the reference group administered orally [2, 12]: 9.5% | difference in the Cmax between the patient group administered via a PEG tube and the reference group administered orally [2, 12]: 8.3% | difference in the AUC between the patient group administered via a PEG tube and the reference group administered orally ([2]; before weight correction): 33% | difference in the Cmax between the patient group administered via a PEG tube and the reference group administered orally ([2]; before weight correction): 30% | Cmax ([2]; human, plasma, 105 mg via PEG tube, ALS patients, corrected to 70 kg, read-out: Cmax after weight correction, mean value±standard error): 1580 ± 251 ng/mL | Cmax ([2]; human, plasma, 105 mg via PEG tube, fasted, ALS patients, mean, before weight correction, read-out: Cmax): 2160 ng/mL | AUC ([2]; human, plasma, 105 mg via PEG tube, ALS patients, corrected to 70 kg, read-out: AUC after weight correction, mean value±standard error): 1700 ± 228 ng·h/mL | AUC(0-inf) [2, 13]: 2340 ng·h/mL | Tmax [2, 13]: 19.8 min | oxidation of edaravone [3]: accelerated at a pH of 2.5 or lower and at a pH of 6.0 or higher

Source: patent US12310946B2, “Pharmaceutical composition for oral administration of edaravone and method of administering same” (MITSUBISHI TANABE PHARMA CORPORATION, priority 2020, dated 2025)
